From patent publication US20200131227A1, “POLYPEPTIDE WITH TUMOUR BINDING ACTIVITY” (RUPRECHT-KARLS-UNIVERSITÄT HEIDELBERG, priority 2017, published 2020)
Where a SMILES comes first, the peptide text is derived from it. Bridges are numbered along the chain shown (N, C = ends).

System: brain metastases derived from breast cancer and NSCLC
Assay: Histochemical peptide staining of brain metastases
Set-up: species or system human
Experimental: Staining with the biotinylated PEG(12)-SFITGv6 peptide was performed on acetone-fixed cryosections (5 μm) of tumor tissues after blocking of unspecific binding using the Avidin/Biotin Blocking Kit (SP-2001, Vector Laboratories). A stock solution of the lyophilized peptide was prepared by dilution in 5% aqueous DMSO. Slices were incubated overnight at 4° C. with 10^-5 M peptide concentration in antibody diluent (DAKO). Detection of bound peptide was carried out with the Vectastain Elite ABC Kit (PK-6100, Vector Laboratories) according to manufacturer's protocol. Peptide specificity was ensured by a scrambled (GRD) PEG(12)-SFITGv6 derivate, the somatostatin receptor ligand DOTATOC and negative controls (without peptide or primary antibody) Staining results were assessed by bright field microscopy (BX50) with the SC30 camera and the cell Sense software (all Olympus).

Structure (SMILES): CSCC[C@@H]1NC(=O)[C@H](CC(C)C)NC(=O)[C@H](CC(=O)O)NC(=O)CNC(=O)[C@H](CCCNC(=N)N)NC(=O)[C@H](Cc2ccccc2)NC(=O)[C@H]([C@@H](C)O)NC(=O)[C@@H](NC(=O)[C@H](CCCNC(=N)N)NC(=O)CN)CSSC[C@@H](C(=O)N[C@@H](Cc2ccc(O)cc2)C(=O)N2CCC[C@H]2C(=O)N[C@@H](CC(=O)O)C(=O)O)NC(=O)[C@H](CC(C)C)NC(=O)[C@H](CCC(N)=O)NC1=O [SFITGv6, NH2-G-R-C1-T-F-R-G-D-L-M-Q-L-C1-Y-P-D-COOH] (H-GRCTFRGDLMQLCYPD-OH; disulfide 3-13)
- histochemical peptide staining result (breast cancer BM (NCH640k)): moderate but distinct tumor cell staining
- histochemical peptide staining result (lung BM (NCH2407)): very strong tumor-specific staining pattern
